According to patent US20080261895A1 (Wyeth, priority 2006, published 2008):
“And” between values parts separate entries of the source, which are not always exact repeats. Identical values can stand only once.

Experiments:
[1] = Fecal excretion and metabolite profile by radiochromatography, dogs; assay type: in vivo, beagle dogs; conditions: single oral 30 mg/kg; for Compounds Detected by Radiochromatography in feces, percent of total peaks, individual dogs: feces 0-24 hours post dose (dog 7 until 48 hours), average of 2 analyses; for Compounds Detected by Radiochromatography in feces, percent of total peaks, Mean ± S.D.: feces 0-24 hours post dose
Experimental: (§1) For each dog, urine and feces were collected separately, with urine collected on dry ice and feces collected at room temperature. Collections were from 0-8 and 8-24 hours for urine and 0-24 hours for feces. Urine and fecal samples were shipped on dry ice to Wyeth Research, Biotransformation Division (Collegeville, Pa.) for analysis. Fecal samples were homogenized in approximately five volumes (v/w) of water. Aliquots of approximately 0.2 grams of the homogenate were placed into combusto-cones, weighed and allowed to air dry. These samples were then oxidized and radioactivity content determined. The remaining urine samples and fecal homogenates were stored at −70° C. until metabolite analysis. Blood samples and fecal homogenates were oxidized in a Model 307 Tri-Carb sample oxidizer, using Carbosorb® E (6 mL) as trapping agent and PermaFluor® E^+ (10 mL) as scintillant. The background reading (average of control blood or fecal samples) was subtracted from each sample reading. Aliquots of urine and plasma were analyzed directly following the addition of 10 mL of Ultima Gold™ scintillation fluid.
Fecal homogenates collected up to 24 hours post-dose were analyzed for metabolite profiles. Aliquots of approximately 2 grams of fecal homogenate were transferred to a fresh tube, an equal volume of acetonitrile (v/w) was added, and the tube vortexed. Samples were then centrifuged at 14000 rpm in an Eppendorf Model 5415C centrifuge for 10 minutes. The supernatant was transferred to a clean tube. The residue was re-suspended with 1 mL acetonitrile and centrifuged as described above. The resulting supernatant was combined with the original supernatant and analyzed for radioactivity. The supernatants were then concentrated under a stream of nitrogen in a Turbo Vap to remove the acetonitrile. An aliquot of the aqueous residue was analyzed by HPLC for profiling. Selected samples were also analyzed by LC/MS to characterize the radioactive peaks.
(§2) Chromatographic analyses were performed with a Waters Alliance model 2690 HPLC system (Waters Corp., Milford, Mass.). It was equipped with a built-in autosampler and was in-line with a model 2487 tunable UV detector, set to monitor 225 nm, and a FloOne β Model 515 radioactivity flow detector (Perkin Elmer) with a 250 μL LQTR flow cell. The flow rate of Ultima Flow M scintillation fluid was 3 mL/min, providing a mixing ratio of scintillation cocktail to mobile phase of 3:1. Separation of the metabolite peaks was accomplished on a Phenomenex Luna C18(2) column, 250×4.6 mm, 5 micron (Phenomenex, Torrance, Calif.), using a linear gradient of two mobile phases, A and B. Mobile phase A was 10 mM ammonium acetate, pH 5.5, and mobile phase B was acetonitrile. The flow rate was 1 mL/min.

[2] = Metabolites of DVS observed by LC/MS in dog plasma, urine and feces; assay type: in vivo, beagle dogs; conditions: P: plasma, U: urine, F: feces
Experimental: An Agilent Model 1100 HPLC system (Agilent Technologies, Wilmington, Del.) including an autosampler and diode array UV detector was used for LC/MS analysis. The UV detector was set to monitor 200 to 400 nm. Separations were accomplished on a 5 micron Phenomenex Luna C18(2) column, 150×2 mm (Phenomenex). The column temperature was 25° C. For selected LC/MS analyses, radiochromatograms were acquired using a β-RAM model 3 radioactivity flow detector (IN/US Systems Inc., Tampa, Fla.) equipped with a solid scintillation flow cell.
The mass spectrometers used for metabolite characterization were a Micromass Q-TOF-2 quadrupole time-of-flight hybrid mass spectrometer (Micromass, Inc., Beverly, Mass.) and a Finnigan LCQ Deca ion trap mass spectrometer (ThermoFinnigan, San Jose, Calif.). The mass spectrometer was equipped with an electrospray ionization (ESI) interface and operated in the positive ionization mode.

[3] = Plasma metabolite profile by radiochromatography, dogs; assay type: in vivo, beagle dogs; conditions: single oral 30 mg/kg DVS
Experimental: Plasma samples collected at 1 and 4 hours post-dose were analyzed for metabolite profiles. Aliquots of 1 mL plasma were mixed with an equal volume of acetonitrile, placed on ice for at least 10 minutes, and then centrifuged at 14000 rpm in an Eppendorf Model 5415C centrifuge for 10 minutes. The supernatant fluid was transferred to a clean tube. The supernatant was analyzed for radioactivity. The supernatant was concentrated under a stream of nitrogen in a Turbo Vap (Zymark, Hopinkton, Mass.) to remove the acetonitrile. An aliquot of the aqueous residue was analyzed by HPLC for profiling. Selected samples were also analyzed by LC/MS to characterize the radioactive peaks.
Chromatographic analyses were performed with a Waters Alliance model 2690 HPLC system (Waters Corp., Milford, Mass.). It was equipped with a built-in autosampler and was in-line with a model 2487 tunable UV detector, set to monitor 225 nm, and a FloOne β Model 515 radioactivity flow detector (Perkin Elmer) with a 250 μL LQTR flow cell. The flow rate of Ultima Flow M scintillation fluid was 3 mL/min, providing a mixing ratio of scintillation cocktail to mobile phase of 3:1. […]

[4] = Urinary excretion and metabolite profile by radiochromatography, rats; assay type: in vivo, Sprague Dawley rats; conditions: for Compounds Detected by Radiochromatography in urine (Mean ± S.D., n = 3), percent of total peaks: single oral 20 mg/kg
Experimental: (§3) Urine and feces were collected separately on dry ice from three animals per sex. Collections were from 0-8 and 8-24 hours for male rats and 0-8 hours for female rats. Fecal samples were homogenized in approximately five volumes (v/w) of water. Aliquots of approximately 0.4 grams of the homogenate were placed into combusto-cones, weighed and allowed to air dry. These samples were then oxidized. The remaining urine samples and fecal homogenates were stored at −70° C. until metabolite analysis.
All urine samples were analyzed for metabolite profiles. Aliquots of 0.5 mL urine were centrifuged at 3500 rpm and 4° C. in a Sorvall Super 21 centrifuge for 10 minutes. The supernatant was transferred to a fresh tube and analyzed for radioactivity content and by HPLC for profiling. Selected samples were also analyzed by LC/MS to characterize the radioactive peaks.
as §2, with “β Model 525 radioactivity flow” for “β Model 515 radioactivity flow”, “fluid was 1 mL/min, providing” for “fluid was 3 mL/min, providing”, “phase of 5:1. Separation of” for “phase of 3:1. Separation of”, “C18(2) column, 150×2.0 mm, 5” for “C18(2) column, 250×4.6 mm, 5”, “acetate, pH 6.0, and mobile” for “acetate, pH 5.5, and mobile”, “rate was 0.2 mL/min.” for “rate was 1 mL/min.”

[5] = Plasma metabolite profile by radiochromatography, rats; assay type: in vivo, Sprague Dawley rats; conditions: single oral 20 mg/kg DVS
Experimental: Plasma samples collected at 1, 4 and 8 hours post-dose were analyzed for metabolite profiles. Aliquots of 0.5 mL plasma were mixed with an equal volume of acetonitrile, placed on ice for approximately 10 minutes, and then centrifuged at 3500 rpm and 4° C. in a Sorvall Super 21 centrifuge for 10 minutes. The supernatant fluid was transferred to a clean tube. The supernatant was analyzed for radioactivity. The supernatant was concentrated under a stream of nitrogen in a Turbo Vap (Zymark, Hopinkton, Mass.) to remove the acetonitrile. An aliquot of the aqueous residue was analyzed by HPLC for metabolite profiling. Selected samples were also analyzed by LC/MS to characterize the radioactive peaks.
as §2, with “β Model 525 radioactivity flow” for “β Model 515 radioactivity flow”, “fluid was 1 mL/min, providing” for “fluid was 3 mL/min, providing”, “phase of 5:1. Separation of” for “phase of 3:1. Separation of”, “C18(2) column, 150×2.0 mm, 5” for “C18(2) column, 250×4.6 mm, 5”, “acetate, pH 6.0, and mobile” for “acetate, pH 5.5, and mobile”, “rate was 0.2 mL/min.” for “rate was 1 mL/min.”

[6] = Urinary excretion and metabolite profile by radiochromatography, dogs; assay type: in vivo, beagle dogs; conditions: urine 8-24 hours post-dose, single oral 30 mg/kg, mean of 2 analyses, 30 mg/kg
Experimental: as §1
Urine samples collected between 8 and 24 hours post-dose were analyzed for metabolite profiles. Aliquots of urine were centrifuged at 14000 rpm in an Eppendorf Model 5415C centrifuge for 10 minutes. The supernatant was transferred to a fresh tube and analyzed for radioactivity content and by HPLC for metabolite profiling. Selected samples were also analyzed by LC/MS to characterize the radioactive peaks.
as §2

[7] = Metabolites of DVS observed by LC/MS in rat plasma, urine and feces; assay type: in vivo, Sprague Dawley rats; conditions: P: plasma, U: urine, F: feces
Experimental: An Agilent Model 1100 HPLC system (Agilent Technologies, Wilmington, Del.) including an autosampler and diode array UV detector was used for LC/MS analysis. The UV detector was set to monitor 200 to 400 nm. Separations were accomplished on a 5 micron Phenomenex Luna C18(2) column, 150×2 mm (Phenomenex). The column temperature was 25° C. The mobile phases and gradient program were as follows.
The mass spectrometer used for metabolite characterization was a Micromass Q-TOF-2 quadrupole time-of-flight hybrid mass spectrometer (Micromass, Inc., Beverly, Mass.). The mass spectrometer was equipped with an electrospray ionization (ESI) interface and operated in the positive ionization mode.

[8] = Fecal excretion and metabolite profile by radiochromatography, rats; assay type: in vivo, Sprague Dawley rats; conditions: male rats, feces 8-24 hours post-dose, single oral 20 mg/kg, 20 mg/kg
Experimental: as §3
Fecal homogenates collected from male rats between 8 and 24 hours post-dose were analyzed for metabolite profiles. Aliquots of approximately 1 gram of fecal homogenate were centrifuged at 3500 rpm and 4° C. in a Sorvall Super 21 centrifuge for 10 minutes. The supernatant was transferred to a clean tube. The residue was re-suspended with 1 mL of water:acetonitrile (1:1, v:v) and centrifuged as described above. The resulting supernatant was combined with the original supernatant and the residue re-suspended with 1 mL of acetonitrile. The suspension was centrifuged as described above, and the supernatants were combined and analyzed for radioactivity. The supernatants were then concentrated under a stream of nitrogen in a Turbo Vap to remove the acetonitrile. An aliquot of the aqueous residue was analyzed by HPLC for profiling. Selected samples were also analyzed by LC/MS to characterize the radioactive peaks.
as §2, with “β Model 525 radioactivity flow” for “β Model 515 radioactivity flow”, “fluid was 1 mL/min, providing” for “fluid was 3 mL/min, providing”, “phase of 5:1. Separation of” for “phase of 3:1. Separation of”, “C18(2) column, 150×2.0 mm, 5” for “C18(2) column, 250×4.6 mm, 5”, “acetate, pH 6.0, and mobile” for “acetate, pH 5.5, and mobile”, “rate was 0.2 mL/min.” for “rate was 1 mL/min.”

NCC(c1ccc(O)cc1)C1(O)CCCCC1 (centres unmarked) [Metabolite M14, N,N,O-tridesmethylvenlafaxine]
Compounds Detected by Radiochromatography in feces, percent of total peaks, individual dogs [1]: 4.4% and 16.1% and 0.0% (2×)
Compounds Detected by Radiochromatography in feces, percent of total peaks, Mean ± S.D. [1]: 5.1 ± 7.0%
Matrix (metabolite observed by LC/MS) [2]: U, F

CN(C)CC(c1ccc(O[C@@H]2O[C@H](C(=O)O)[C@@H](O)[C@H](O)[C@H]2O)cc1)C1(O)CCCCC1 (some centres unmarked) [Metabolite M7, O-desmethylvenlafaxine O-glucuronide]
% of the radioactivity detected in plasma ([3]; 1 hour post-dose): 77.5%
% of the radioactivity detected in plasma ([3]; 4 hours post-dose): 96.4%
% of the radioactivity detected in urine ([4]; all urine samples at each time point): approximately 75%
Compounds Detected by Radiochromatography in urine (Mean ± S.D., n = 3), percent of total peaks ([4]; 0-8 hr, female): 74.0 ± 3.3%
Compounds Detected by Radiochromatography in urine (Mean ± S.D., n = 3), percent of total peaks ([4]; 0-8 hr, male): 76.5 ± 1.9%
Compounds Detected by Radiochromatography in urine (Mean ± S.D., n = 3), percent of total peaks ([4]; 8-24 hr, male): 77.2 ± 1.2%
Matrix (metabolite observed by LC/MS) [2]: P, U, F
% of the radioactivity in plasma ([5]; female rats, 1 hour post-dose): 86.6%
% of the radioactivity in plasma ([5]; male rats, 1 hour post-dose): 88.7%
% of the radioactivity in plasma ([5]; male rats, 4 hours post-dose): 93.6%
Compounds Detected by Radiochromatography in urine, percent of total peaks, individual dogs [6]: 84.1% and 83.5% and 83.9% and 86.8%
Matrix (metabolite observed by LC/MS) [7]: P, U, F

CN(C)CC(O)(c1ccc(O)cc1)C1(O)CCCCC1 (centres unmarked) [Metabolite M9, Hydroxy DV]
Matrix (metabolite observed by LC/MS) [2]: U, F

CNCC(c1ccc(O[C@@H]2O[C@H](C(=O)O)[C@@H](O)[C@H](O)[C@H]2O)cc1)C1(O)CCCCC1 (some centres unmarked) [Metabolite M13, N,O-didesmethylvenlafaxine O-glucuronide]
Matrix (metabolite observed by LC/MS) [2]: P, U
Compounds Detected by Radiochromatography in urine, percent of total peaks, individual dogs [6]: 3.3% and 3.5% and 4.3% and 3.6%
Matrix (metabolite observed by LC/MS) [7]: P, U

CNCC(c1ccc(O)cc1)C1(O)CCCCC1 (centres unmarked) [Metabolite M10, N,O-didesmethylvenlafaxine]
Compounds Detected by Radiochromatography in feces, percent of total peaks, Mean ± S.D. [8]: 34% and 33.6 ± 0.9%
Compounds Detected by Radiochromatography in feces, percent of total peaks, individual rats [8]: 34.5% and 32.6% and 33.6%
Compounds Detected by Radiochromatography in feces, percent of total peaks, individual dogs [1]: 9.8% and 17.7% and 8.6% and 11.2%
Matrix (metabolite observed by LC/MS) [2]: P, U, F
Matrix (metabolite observed by LC/MS) [7]: P, U, F

C[N+](C)([O-])CC(c1ccc(O)cc1)C1(O)CCCCC1 (centres unmarked) [N-oxide DV]
Compounds Detected by Radiochromatography in feces, percent of total peaks, Mean ± S.D. [8]: 7%
Compounds Detected by Radiochromatography in feces, percent of total peaks, Mean ± S.D. ([8]; listed as N-Oxide): 7.1 ± 1.3%
Compounds Detected by Radiochromatography in feces, percent of total peaks, individual rats ([8]; listed as N-Oxide): 6.0% and 6.7% and 8.5%
Compounds Detected by Radiochromatography in feces, percent of total peaks, individual dogs [1]: 7.3% and 15.7% and 5.7% and 0.0%
Compounds Detected by Radiochromatography in feces, percent of total peaks, Mean ± S.D. [1]: approximately 7%
Compounds Detected by Radiochromatography in feces, percent of total peaks, Mean ± S.D. ([1]; listed as N-Oxide): 7.2 ± 6.1%
Matrix (metabolite observed by LC/MS) [2]: P, U, F
Matrix (metabolite observed by LC/MS) [7]: P, U, F^b
